Earlier results as cited in patent US20250120988A1, “SMALL MOLECULE COMPOUND FOR TREATING ISCHEMIC STROKE, ITS PREPARATION METHOD, AND APPLICATION” (SHANGHAI SIXTH PEOPLE'S HOSPITAL, priority 2023, published 2025).

Experiments:
ischemic stroke patients = details: clinical trials; cited from earlier work
NMDARs = details: competitive antagonist of NMDARs; read-out: half-blocking dose (IC50) on NMDARs; cited from earlier work
[1] = cited from earlier work

O=C(O)[C@@H]1C[C@H](CP(=O)(O)O)CCN1 (racemic) [Selfotel]
patient mortality compared to the control group (ischemic stroke patients): did not significantly reduce patient mortality | psychiatric symptoms in patients (ischemic stroke patients): led to various psychiatric symptoms in patients | IC50 (NMDARs): < 1000 nM | solubility in water [1]: highly soluble in water
